Assay results taken from patent US9456972B2, “Niacin-peptide having skin whitening activity and use for same” (priority 2011, dated 2016).
Square brackets hold non-standard residues; d marks the D form. Ends that are not written are not given here. Peptide text beside a SMILES is read from it. * marks the point of attachment. Nicotinoyl = O=C(c1cccnc1)*; βAla = NCCC(=O)O

System: melanin movement from melanocytes to keratinocytes
Assay: not given
Conditions: cited from earlier work

Row | Compound | decrease of melanin movement from melanocytes to keratinocytes
1 | NC(=O)c1cccnc1 [Niacinamide] | 68%

System: B16F10 melanocytes
Assay: Screening of niacin-peptides: inhibition of melanogenesis against α-MSH
Format: cell-based, mouse
Set-up: key: relative to absorbance (490 nm) of α-MSH-only positive control
Conditions: 20 μg/ml α-MSH plus 10 ng/ml peptide, 3 days, UV 490 nm, α-MSH-only positive control as standard
Procedure: The present inventors screened skin whitening peptides by measuring decrease in melanogenesis using the niacin-peptide libraries prepared in Example 1. B16F10 melanocytes (the Korean Cell Line Bank) were incubated with α-MSH to induce melanogenesis and the inhibition of melanogenesis by the peptide libraries was analyzed. The mouse melanocytes were cultured at 37° C. in 5% CO2 atmosphere in DMEM supplemented with 10% FBS. The cells were seeded in each well of a 96-well plate (5×10^4 cells/well) and their attachment was verified. Afterwards, the control group was incubated with only solvent, the positive control group was incubated with 20 μg/ml of α-MSH and the other wells was incubated with 20 μg/ml of α-MSH and 10 ng/ml of peptides for 3 days.
The inhibition rates of melanogenesis by treatment of each peptide prepared in Example 1 were measured at UV 490 nm. The inhibition rates were calculated using the absorbance value of the positive control group incubated with only α-MSH as a standard, which are summarized in Table 1. The candidate peptides analyzed to show excellent screening results were selected and synthesized in a 100-μmole scale for further experiments. FIG. 1 represents the screening result of niacin-peptides.

Row | Compound | Screening value: Inhibition of melanogenesis against α-MSH
2 | nicotinoyl-KTTKS (Nicotinoyl-KTTKS) | 0.92
3 | nicotinoyl-RKDVY (Nicotinoyl-RKDVY) | 0.87
4 | nicotinoyl-GEPG (Nicotinoyl-GEPG) | 0.96
5 | nicotinoyl-KRGKP (Nicotinoyl-KRGKP) | 0.84
6 | nicotinoyl-KVK (Nicotinoyl-Lys-Val-Lys) | 1.01
7 | nicotinoyl-FWY (Nicotinoyl-Phe-Trp-Tyr) | 0.61
8 | nicotinoyl-beta-AHSH (Nicotinoyl-[βAla]HSH) | 0.82
9 | nicotinoyl-GRKG (Nicotinoyl-GRKG) | 0.93
10 | nicotinoyl-KVARP (Nicotinoyl-KVARP) | 0.96
11 | nicotinoyl-KRGDR (Nicotinoyl-KRGDR) | 0.92
12 | nicotinoyl-GPHyp | 0.89
13 | nicotinoyl-KAKA (Nicotinoyl-KAKA) | 0.87
14 | nicotinoyl-GPRPA-NH2 (Nicotinoyl-GPRPA-NH2; SMILES C[C@H](NC(=O)[C@@H]1CCCN1C(=O)[C@H](CCCNC(=N)N)NC(=O)[C@@H]1CCCN1C(=O)CNC(=O)c1cccnc1)C(N)=O) | 0.7
15 | nicotinoyl-DKYV | 0.87
16 | nicotinoyl-SIKVAV (Nicotinoyl-SIKVAV) | 0.72
17 | nicotinoyl-YGGFM (Nicotinoyl-YGGFM) | 0.81
18 | nicotinoyl-PLG-NH2 (Nicotinoyl-Pro-Leu-Gly-NH2; SMILES CC(C)C[C@H](NC(=O)[C@@H]1CCCN1C(=O)c1cccnc1)C(=O)NCC(N)=O) | 0.92
19 | nicotinoyl-ISELGW (Nicotinoyl-ISELGW) | 0.64

Row | Compound | Screening value: Inhibition of melanogenesis against α-MSH
20 | nicotinoyl-VGVAPG (Nicotinoyl-VGVAPG) | 0.95
21 | nicotinoyl-AHK (Nicotinoyl-Ala-His-Lys) | 0.8
22 | nicotinoyl-VPAA (Nicotinoyl-VPAA) | 0.85
23 | nicotinoyl-YT | 0.75
24 | nicotinoyl-TYR (Nicotinoyl-Thr-Tyr-Arg) | 0.72
25 | nicotinoyl-SSNA (Nicotinoyl-SSNA) | 0.71
26 | nicotinoyl-YGY (Nicotinoyl-Tyr-Gly-Tyr) | 0.69
27 | nicotinoyl-EEMQRR-NH2 (Nicotinoyl-EEMQRR-NH2; SMILES CSCC[C@H](NC(=O)[C@H](CCC(=O)O)NC(=O)[C@H](CCC(=O)O)NC(=O)c1cccnc1)C(=O)N[C@@H](CCC(N)=O)C(=O)N[C@@H](CCCNC(=N)N)C(=O)N[C@@H](CCCNC(=N)N)C(N)=O) | 0.86
28 | nicotinoyl-YGYTGA (Nicotinoyl-YGYTGA) | 0.95
29 | nicotinoyl-KLAKK (Nicotinoyl-KLAKK) | 0.96
30 | nicotinoyl-VEPIPY (Nicotinoyl-VEPIPY) | 0.81
31 | nicotinoyl-YGGFL | 0.78
32 | nicotinoyl-NP | 0.8
33 | nicotinoyl-GHR (Nicotinoyl-Gly-His-Arg) | 0.75
34 | nicotinoyl-GPQGPQ (Nicotinoyl-GPQGPQ) | 0.88
35 | nicotinoyl-YPFF-NH2 (Nicotinoyl-YPFF-NH2; SMILES NC(=O)[C@H](Cc1ccccc1)NC(=O)[C@H](Cc1ccccc1)NC(=O)[C@@H]1CCCN1C(=O)[C@H](Cc1ccc(O)cc1)NC(=O)c1cccnc1) | 0.85
36 | nicotinoyl-GQPR (Nicotinoyl-GQPR) | 0.83

System: B16F10 cells
Assay: Skin whitening effect: melanogenesis at various concentrations in α-MSH-treated melanocytes
Format: cell-based, mouse
Conditions: 1, 10, 100 and 250 μg/ml, 3 days
Procedure: Cells were treated with various concentrations of niacin-peptide, followed by measuring activity in inhibition of melanogenesis. The mouse melanocytes were cultured at 37° C. in 5% CO2 atmosphere in DMEM supplemented with 10% FBS. The cells were seeded in each well of a 24-well plate (1×10^5 cells/well) and their attachment was verified. Cells were incubated with each test group for 3 days: (a) only solvent as negative control; (b) 20 μg/ml α-MSH as a positive control; (c) 20 μg/ml α-MSH plus 1, 10, 100 and 250 μg/ml niacin-peptides (NA-PG, NAPS, NA-ET and NA-VS); (d) 1, 10, 100 and 250 μg/ml arbutin; and (e) 1, 10, 100 and 250 μg/ml AA2G.
FIG. 5 is images of melanocytes representing treatment effects of NA-PS and PS peptides on melanogenesis decrease rate in a concentration dependent manner.
For analyzing the release amount of melanin, the absorbance values of the culture medium were measured at 490 nm.

Row | cell number compared with the α-MSH treated group | Compound
37 | significantly decreased | OC[C@H]1O[C@@H](Oc2ccc(O)cc2)[C@H](O)[C@@H](O)[C@@H]1O [arbutin]

System: not listed separately
Assay: Stability of niacin-peptides in human serum
Format: in vitro ADME
Conditions: 100 μg/ml, incubated with human serum for 10 hr
Procedure: The prepared solutions were introduced into glass vials and kept to stand at 40° C. for 7, 14, 21, 28, 35, 42 and 60 days. […] The present inventors tested stability of niacin-peptides in human serum. Niacin-peptides (nicotinoyl-PS, 100 μg/ml) or niacin-unlinked peptide (PS, 100 μg/ml) was incubated with human serum for 10 hr, and the amount of residual peptides was measured at every hour. According to the result of the comparative stability experiment, when nicotinoyl-PS (nicotinoyl group linked to the N-terminal of PS peptide) was incubated with the serum for 10 hr, the stability of niacin-peptides was 20% higher than the control group (niacin-unlinked peptide).

Row | stability higher than the control group (niacin-unlinked peptide PS) | Compound
38 | 20% | O=C(O)[C@H](CO)NC(=O)[C@@H]1CCCN1C(=O)c1cccnc1 [nicotinoyl-PS] (Nicotinoyl-Pro-Ser-OH)
